The results in this text go back to BindingDB's records for doi:10.1021/acs.jmedchem.0c00249 (China Pharmaceutical University, 2020).

The nature of experiment [1]: Inhibition of SHP2 E76K mutant in splenocytes derived from JMML patient assessed as reduction in cell proliferation in presence of GM-CSF.
Experiment [2] in a line: Inhibition of SHP2 E76K mutant in splenocytes derived from JMML patient assessed as reduction in GM-CSF induced colony formation of myeloid blast cells measured after 14 days.

As to `Cc1cc(C)c2[nH]c3nc(SCC(=O)Nc4cccc5ccccc45)nnc3c2c1`, the IC50 in experiment [1] stood at 3.09 µM; in experiment [2], 7.24 µM.

What is called IC50 is the concentration at which inhibition is half-maximal.
